{
  "source": "patent US8637472B2",
  "about": "“Optimized dengue virus entry inhibitory peptide (10AN)” (University of Washington Through Its Center for …, priority 2007, dated 2014)",
  "test_system": "LLCMK-2 cells",
  "experiment": "Cytotoxicity assay (TACS MTT, mitochondrial reductase activity)",
  "format": "cell-based, African green monkey",
  "details": "confluent LLCMK-2 monolayers; concentration ranges that showed viral inhibition; compared to medium only controls",
  "description": "The cytotoxicity of the chemistries was measured by monitoring mitochondrial reductase activity using the TACS™ MTT cell proliferation assay (R&D Systems, Inc., Minneapolis, Minn.) according to the manufacturer's instructions. Dilutions of chemistries in serum-free DMEM were added to confluent monolayers of LLCMK-2 cells in 96-well plates for 1 h at 37° C., similar to the focus forming inhibition assays, and subsequently incubated at 37° C. with 5% (v/v) CO2 for 24 h. Absorbance at 560 nm was measured using a Tecan GeniosPro plate reader (Tecan US, Durham, N.C.).",
  "note": "Residues, ends and D or L forms follow the SMILES beside them.",
  "data": [
    {"smiles": "CC[C@H](C)[C@H](NC(=O)[C@H](CC(C)C)NC(=O)[C@@H](NC(=O)[C@H](Cc1ccccc1)NC(=O)[C@H](Cc1c[nH]c2ccccc12)NC(=O)[C@@H](N)Cc1ccccc1)[C@@H](C)O)C(=O)N[C@@H](CCCCN)C(=O)N[C@H](C(=O)N[C@@H](CCC(N)=O)C(=O)N[C@@H](C)C(=O)N[C@@H](CCCCN)C(=O)N[C@@H](CCC(N)=O)C(=O)N1CCC[C@H]1C(=O)N[C@@H](C)C(=O)N[C@@H](CCCNC(=N)N)C(=O)N[C@@H](Cc1ccc(O)cc1)C(=O)N[C@@H](CCCNC(=N)N)C(=O)N[C@@H](CCCNC(=N)N)C(=O)N[C@@H](Cc1ccccc1)C(=O)N[C@@H](CS)C(=O)O)[C@@H](C)O", "note": "[10AN] (H-FWFTLIKTQAKQPARYRRFC-OH)", "values": [
      {"measurement": "cytotoxicity (mitochondrial reductase activity of target cells)", "value": "not due to toxicity"}
    ]}
  ]
}
